Measurements: patent publication US5102885A, “Imidazoquinoxaline compounds and their use” (Novo Nordisk A/S, priority 1989, dated 1992)

Each compound was assayed on benzodiazepine receptors (assay: In vivo displacement of 3H-flunitrazepam specific binding to brain benzodiazepine receptors in mice). Settings: test substance i.p. 15 min before 3H-FNM i.v. (4 μCi), sacrificed 20 min after 3H-FNM, forebrain.
Set-up: species or system mice (female, NMR)
From the text: The pharmaceutical properties of the compounds of the invention can be illustrated by determining their capability for displacing radioactive labelled flunitrazepam from benzodiazepine receptors.
The displacement activity of the compounds of the invention may be found by determining the ED50 value. The ED50 value represents the dose (mg/kg) of a test substance which causes the specific binding of flunitrazepam to benzodiazepine receptors in a living brain to be reduced to 50% of the control value.
Such an in vivo test is carried out as follows:
Twenty minutes after a dose of ^3 H-flunitrazepam (^3 H-FNM) (200 μCi/kg, i.v.) the amount of specific ^3 H-FNM binding to brain benzodiazepine receptors has reached its maximal value.
Suspensions of test substances (2 mg/ml) are prepared in 5% Duphasol-X (TM Duphar, castor oil-ethylene oxide derivative for emulsifying and solubilizing oil and other water-insoluble substances) by sonification for 10 min using a Branson B15 microtip ultrasonifier (setting 7). Groups of three mice (female, NMR, 18-22 grams) are injected with the test substance at 100 mg/kg intraperitoneally. Fifteen minutes after test substance administration the mice are challenged with 4 μCi intravenously of ^3 H-FNM (70-90 Ci/mole) in 200 μl physiological saline. Twenty minutes after ^3 H-FNM administration mice are sacrificed by decapitation, the forebrains rapidly excised (within 30 sec) and homogenized in 12 ml of icecold 25 mM KH2 PO4, pH 7.1, using an Ultra-Turrax homogenizer fitted with an N 10 shaft. Two aliquots of 1 ml are immediately filtered through Whatman GF/C glassfibre filters and washed with 2×5 ml of the above mentioned buffer. The amounts of radioactivity on the filters are determined by conventional scintillation counting. One group of untreated mice serves as control. One to three mice are injected with 25 μg/kg clonazepam i.p. 30 minutes before ^3 H-FNM to determine the amount of non-specific ^3 H-FNM binding, which should be between 8-15% of total binding. […]
The ED50 value is determined from dose response curves.

SMILES	ED50 (dose which inhibits 50% of specific 3H-flunitrazepam binding to benzodiazepine receptors in living brain)
CC(C)n1c(=O)c2c(C(=O)CC(=O)C3CC3)ncn2c2ccccc21 [Compound 2, 3-(3-cyclopropyl-1,3-dioxopropyl)-4,5-dihydro-5-isopropyl-4-oxo-imidazo[1,5-a]quinoxaline]	1.5 mg/kg
CC(=O)CC(=O)c1ncn2c1c(=O)n(C(C)C)c1ccccc12 [Compound 4, 4,5-dihydro-5-isopropyl-4-oxo-3-(1,3-dioxobutyl)-imidazo-[1,5-a]quinoxaline]	1.4 mg/kg
CC(C)(C)n1c(=O)c2c(C(=O)CC(=O)C3CC3)ncn2c2ccccc21 [Compound 6, 5-tert-butyl-3-(3-cyclopropyl-1,3-dioxopropyl)-4,5-dihydro-4-oxo-imidazo[1,5-a]quinoxaline]	2.5 mg/kg
